Measurements published in patent US20240317721A1, “PYRAZOLYL DERIVATIVES AS INHIBITORS OF THE KRAS MUTANT PROTEIN” (NOVARTIS AG, priority 2021, published 2024).

Each compound was assayed against KRasG12C (M1-K169, biotinylated on the N-terminus) (Homo sapiens (Human), UniProt P01116, G12C) (assay: Covalent competition assay: scintillation proximity assay (SPA) quantifying covalent modification of KRASG12C). Conditions: competition with radiolabeled covalent probe (Compound B/Compound A), 2 hours incubation, 10 nM KRasG12C.
Assay type: binding
Method in brief: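 Test compounds compete with a radiolabeled covalent probe for modification of N-terminally biotinylated KRasG12C(M1-K169):GDP, final 10 nM protein, 25 nM radio-ligand, 475 nM unlabelled ligand, 2 h with agitation in 20 mM Tris-HCl pH 7.5, 150 mM NaCl, 0.1 mM MgCl2, 0.01% Tween-20.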

Q: How did the IC50 turn out when C=CC(=O)N1CC2(CC(n3nc(N4CCn5nccc5C4C)c(-c4c(Cl)c(C)cc5[nH]ncc45)c3C)C2)C1 (single isomer, unassigned) [Example 42b, 1-(6-(4-(5-chloro-6-methyl-1H-indazol-4-yl)-5-methyl-3-(4-methyl-6,7-dihydropyrazolo[1,5-a]pyrazin-5(4H)-yl)-1H-pyrazol-1-yl)-2-azaspiro[3.3]heptan-2-yl)prop-2-en-1-one] was run?
A: 186 nM

Q: C=CC(=O)N1CC2(CC(n3nc(N4CCCc5c(cnn5C)C4)c(-c4c(Cl)c(C)cc5[nH]ncc45)c3C)C2)C1 (single isomer, unassigned) [Example 43a, 1-(6-(4-(5-chloro-6-methyl-1H-indazol-4-yl)-5-methyl-3-(1-methyl-4,6,7,8-tetrahydropyrazolo[4,3-c]azepin-5(1H)-yl)-1H-pyrazol-1-yl)-2-azaspiro[3.3]heptan-2-yl)prop-2-en-1-one] was tested. Which IC50 did it give?
A: > 50000 nM

Q: With C=CC(=O)N1CC2(CC(n3nc(N4CCCc5c(cnn5C)C4)c(-c4c(Cl)c(C)cc5[nH]ncc45)c3C)C2)C1 (single isomer, unassigned) [Example 43b, 1-(6-(4-(5-chloro-6-methyl-1H-indazol-4-yl)-5-methyl-3-(1-methyl-4,6,7,8-tetrahydropyrazolo[4,3-c]azepin-5(1H)-yl)-1H-pyrazol-1-yl)-2-azaspiro[3.3]heptan-2-yl)prop-2-en-1-one] as the compound, how does the IC50 read?
A: 758 nM

Q: C=CC(=O)N1CC2(CC(n3nc(N4CCC(n5ccnc5)CC4(C)C)c(-c4c(Cl)c(C)cc5[nH]ncc45)c3C)C2)C1 (single isomer, unassigned) [Example 44a, 1-(6-(3-(4-(1H-imidazol-1-yl)-2,2-dimethylpiperidin-1-yl)-4-(5-chloro-6-methyl-1H-indazol-4-yl)-5-methyl-1H-pyrazol-1-yl)-2-azaspiro[3.3]heptan-2-yl)prop-2-en-1-one] was tested. Which IC50 did it give?
A: 4600 nM

Q: Which IC50 does the source give for C=CC(=O)N1CC2(CC(n3nc(N4CCC(n5ccnc5)CC4(C)C)c(-c4c(Cl)c(C)cc5[nH]ncc45)c3C)C2)C1 (single isomer, unassigned) [Example 44b, 1-(6-(3-(4-(1H-imidazol-1-yl)-2,2-dimethylpiperidin-1-yl)-4-(5-chloro-6-methyl-1H-indazol-4-yl)-5-methyl-1H-pyrazol-1-yl)-2-azaspiro[3.3]heptan-2-yl)prop-2-en-1-one] here?
A: 20 nM

Q: C=CC(=O)N1CC2(CC(n3nc(N4CCC(n5ccnc5)CC4(C)C)c(-c4c(Cl)c(C)cc5[nH]ncc45)c3C)C2)C1 (single isomer, unassigned) [Example 45a, 1-(6-(3-(4-(1H-imidazol-1-yl)-2,2-dimethylpiperidin-1-yl)-4-(5-chloro-6-methyl-1H-indazol-4-yl)-5-methyl-1H-pyrazol-1-yl)-2-azaspiro[3.3]heptan-2-yl)prop-2-en-1-one] was tested. Which IC50 did it give?
A: 365 nM

Q: C=CC(=O)N1CC2(CC(n3nc(N4CCC(n5ccnc5)CC4(C)C)c(-c4c(Cl)c(C)cc5[nH]ncc45)c3C)C2)C1 (single isomer, unassigned) [Example 45b, 1-(6-(3-(4-(1H-imidazol-1-yl)-2,2-dimethylpiperidin-1-yl)-4-(5-chloro-6-methyl-1H-indazol-4-yl)-5-methyl-1H-pyrazol-1-yl)-2-azaspiro[3.3]heptan-2-yl)prop-2-en-1-one] was tested. Which IC50 did it give?
A: 1500 nM

Q: How did the IC50 turn out when C=CC(=O)N1CC2(CC(n3nc(N4CCC(N(CC)C5COC5)CC4(C)C)c(-c4c(Cl)c(C)cc5[nH]ncc45)c3C)C2)C1 (single isomer, unassigned) [Example 48a, 1-(6-(4-(5-chloro-6-methyl-1H-indazol-4-yl)-3-(4-(ethyl(oxetan-3-yl)amino)-2,2-dimethylpiperidin-1-yl)-5-methyl-1H-pyrazol-1-yl)-2-azaspiro[3.3]heptan-2-yl)prop-2-en-1-one] was run?
A: 296 nM

Q: With C=CC(=O)N1CC2(CC(n3nc(N4CCC(N(CC)C5COC5)CC4(C)C)c(-c4c(Cl)c(C)cc5[nH]ncc45)c3C)C2)C1 (single isomer, unassigned) [Example 48b, 1-(6-(4-(5-chloro-6-methyl-1H-indazol-4-yl)-3-(4-(ethyl(oxetan-3-yl)amino)-2,2-dimethylpiperidin-1-yl)-5-methyl-1H-pyrazol-1-yl)-2-azaspiro[3.3]heptan-2-yl)prop-2-en-1-one] as the compound, how does the IC50 read?
A: 6 nM

Q: C=CC(=O)N1CC2(CC(n3nc(N4CCN(C5COC5)CC45CCC5)c(-c4c(C)c(O)cc(C)c4Cl)c3C)C2)C1 (single isomer, unassigned) [Example 49a, 1-(6-(4-(2-chloro-5-hydroxy-3,6-dimethylphenyl)-5-methyl-3-(8-(oxetan-3-yl)-5,8-diazaspiro[3.5]nonan-5-yl)-1H-pyrazol-1-yl)-2-azaspiro[3.3]heptan-2-yl)prop-2-en-1-one] was tested. Which IC50 did it give?
A: 1790 nM

Q: C=CC(=O)N1CC2(CC(n3nc(N4CCN(C5COC5)CC45CCC5)c(-c4c(C)c(O)cc(C)c4Cl)c3C)C2)C1 (single isomer, unassigned) [Example 49b, 1-(6-(4-(2-chloro-5-hydroxy-3,6-dimethylphenyl)-5-methyl-3-(8-(oxetan-3-yl)-5,8-diazaspiro[3.5]nonan-5-yl)-1H-pyrazol-1-yl)-2-azaspiro[3.3]heptan-2-yl)prop-2-en-1-one] was tested. Which IC50 did it give?
A: > 5000 nM

Q: For C=CC(=O)N1CC2(CC(n3nc(N4CCC(N(C)C5COC5)CC4(C)C)c(-c4c(Cl)c(Cl)cc5[nH]ncc45)c3C)C2)C1 (single isomer, unassigned) [Example 50a, 1-(6-(4-(5,6-dichloro-1H-indazol-4-yl)-3-(2,2-dimethyl-4-(methyl(oxetan-3-yl)amino)piperidin-1-yl)-5-methyl-1H-pyrazol-1-yl)-2-azaspiro[3.3]heptan-2-yl)prop-2-en-1-one], which IC50 is on record?
A: 273 nM

Q: Which IC50 does the source give for C=CC(=O)N1CC2(CC(n3nc(N4CCC(N(C)C5COC5)CC4(C)C)c(-c4c(Cl)c(Cl)cc5[nH]ncc45)c3C)C2)C1 (single isomer, unassigned) [Example 50b, 1-(6-(4-(5,6-dichloro-1H-indazol-4-yl)-3-(2,2-dimethyl-4-(methyl(oxetan-3-yl)amino)piperidin-1-yl)-5-methyl-1H-pyrazol-1-yl)-2-azaspiro[3.3]heptan-2-yl)prop-2-en-1-one] here?
A: 5 nM

Q: How did the IC50 turn out when C=CC(=O)N1CC2(CC(n3nc(N4CCC(N(C)C5COC5)CC45CCC5)c(-c4c(Cl)c(C)cc5[nH]ncc45)c3C)C2)C1 (single isomer, unassigned) [Example 51a, 1-(6-(4-(5-chloro-6-methyl-1H-indazol-4-yl)-5-methyl-3-(8-(methyl(oxetan-3-yl)amino)-5-azaspiro[3.5]nonan-5-yl)-1H-pyrazol-1-yl)-2-azaspiro[3.3]heptan-2-yl)prop-2-en-1-one] was run?
A: 10 nM

Q: How did the IC50 turn out when C=CC(=O)N1CC2(CC(n3nc(N4CCC(N(C)C5COC5)CC45CCC5)c(-c4c(Cl)c(C)cc5[nH]ncc45)c3C)C2)C1 (single isomer, unassigned) [Example 51b, 1-(6-(4-(5-chloro-6-methyl-1H-indazol-4-yl)-5-methyl-3-(8-(methyl(oxetan-3-yl)amino)-5-azaspiro[3.5]nonan-5-yl)-1H-pyrazol-1-yl)-2-azaspiro[3.3]heptan-2-yl)prop-2-en-1-one] was run?
A: 668 nM

Q: Which IC50 does the source give for C=CC(=O)N1CC2(CCC(n3nc(N4CCN(C(C)=O)CC4)c(-c4c(Cl)ccc5[nH]ncc45)c3C)C2)C1 (single isomer, unassigned) [Example 53a, 1-(6-(3-(4-acetylpiperazin-1-yl)-4-(5-chloro-1H-indazol-4-yl)-5-methyl-1H-pyrazol-1-yl)-2-azaspiro[3.4]octan-2-yl)prop-2-en-1-one] here?
A: 4900 nM
